Non-standard residues stand in square brackets, D forms with d. Residues, ends and D or L forms follow the SMILES beside them. No end group written: not given here. *: point of attachment. Phe(4-F) = N[C@@H](Cc1ccc(F)cc1)C(=O)O; Arg(Me) = CNC(=N)NCCC[C@H](N)C(=O)O; Hydrocinnamoyl = O=C(CCc1ccccc1)*; Butyryl = CCCC(=O)*; Bz = O=C(c1ccccc1)*; GABA = NCCCC(=O)O; azaGly = NNC(=O)O; βAla = NCCC(=O)O
Assays:
hOT7T175 [1] = target: T1, hOT7T175 (Homo sapiens, UniProt Q969F8, L364H); assay type: cell-based; settings: hOT7T175/CHO, FLIPR, evaluation for 40 seconds after initiation of the reaction
T1 construct: expressed in transfected cells
Protocol: The intracellular Ca ion level-increasing activity was measured using FLIPR as in TEST EXAMPLE 2.

[2] = Blood testosterone level decreasing effect in mature male rat (2 mM peptide solution, ALZET osmotic pump); assay type: in vivo; settings: 2 mM peptide solution in distilled water, ALZET osmotic pump s.c., 6 days, Tables 28 and 29
Protocol: (§1) This peptide solution was filled in 5 ALZET osmotic pumps (Model 2001, 0.2 ml in volume, release rate: 0.001 ml/hr, DURECT Corporation). The ALZET pumps filled with the peptide solution were implanted subcutaneously in 5 CD(SD)IGS male rats of 9 weeks old after birth (Charles River Japan, Inc.) on the back under ether anesthesia by one pump for one animal. For negative control, distilled water (Otsuka Pharmaceutical Co., Ltd.) was filled in 5 ALZET osmotic pumps, which were similarly implanted in 5 male CD(SD)IGS rats (Charles River Japan, Inc.), respectively. These pump-implanted rats were fed for 6 days under normal feeding conditions. After weighing, the animal was decapitated to collect blood. After 0.03 ml/ml blood of aprotinin solution (Trasylol, Bayer) containing 0.1 mg/ml EDTA.2Na was added to blood, the mixture was centrifuged at 1,800 G for 25 minutes to isolate/recover plasma. From the plasma obtained, 0.05 ml was applied to radioimmunoassay (DPC.Total Testosterone Kit, Diagnostic Products Corporation) to measure the plasma testosterone level of each rat. The value below the limit of measurement (0.04 ng/ml of plasma level) in radioimmunoassay was treated as 0. A mean value of the testosterone levels from 5 rats receiving the peptide was calculated and a relative value (percent) of the mean value to a mean value from 5 rats receiving distilled water.

hOT7T175 [3] = target: T2, hOT7T175 (Homo sapiens, UniProt Q969F8); assay: Intracellular Ca ion level-increasing activity using FLIPR (180 seconds; specific activity to Metastin (1-54)); assay type: cell-based; settings: hOT7T175/CHO, change in intracellular calcium ion level for 180 seconds, Tables 21-23
T2 construct: expressed in transfected cells

[4] = Blood testosterone level decreasing effect in mature male rat (0.1 mM peptide solution); assay type: in vivo
Protocol: as §1
In a manner similar to TEST EXAMPLE 14, evaluation was made using 0.1 mM peptide solution and a part of the results obtained are shown in TABLE 30.

[5] = Action of reducing testosterone level in blood in mature male rat (1 mM peptide in 50% DMSO, ALZET osmotic pump); assay type: in vivo; settings: 1 mM peptide in 50% DMSO aqueous solution, ALZET osmotic pump s.c., six days
Protocol: The peptide was encapsulated in five ALZET osmotic pump (Model 2001, 0.2 ml of volume, releasing rate 0.001 ml/hr, DURECT Corporation). The ALZET pumps encapsulated with the peptide solution were implanted to dorsal subcutaneous of five male CD (SD) IGS rat at nine weeks age (Charles River Japan, Inc.) anesthesized with ether for one pump to one rat. Separately, for negative controls, the ALZET osmotic pumps encapsulated with distilled water were implanted to five male CD (SD) IGS rat (Charles River Japan, Inc.) The rats were bred for six days under the normal conditions. After weighing, blood was collected by decapitation. To 1 ml of blood, 0.03 ml of aprotinin (Trasylol, Byer) solution containing 0.1 g/ml EDTA 2Na was added. The plasma was isolated by centrifugation at 1,800×g for 25 minutes and collected. The thus obtained plasma, 0.05 ml was effected by radioimmunoassay. (DPC Total Testosterone Kit, Diagnostic Products Corporation) to measure testosterone level in blood of each rat. The value beneath measuring limit of radioimmunoassay (0.04 ng/ml as concentration of plasma) was treated as zero. The mean values for testosterone level of five rats, to which the peptide was given, was calculated and the relative value (percentage) for the mean values of testosterone level of five rats, to which distilled watrer was given, was estimated.

T2 sequence (Q969F8 whole entry L364H): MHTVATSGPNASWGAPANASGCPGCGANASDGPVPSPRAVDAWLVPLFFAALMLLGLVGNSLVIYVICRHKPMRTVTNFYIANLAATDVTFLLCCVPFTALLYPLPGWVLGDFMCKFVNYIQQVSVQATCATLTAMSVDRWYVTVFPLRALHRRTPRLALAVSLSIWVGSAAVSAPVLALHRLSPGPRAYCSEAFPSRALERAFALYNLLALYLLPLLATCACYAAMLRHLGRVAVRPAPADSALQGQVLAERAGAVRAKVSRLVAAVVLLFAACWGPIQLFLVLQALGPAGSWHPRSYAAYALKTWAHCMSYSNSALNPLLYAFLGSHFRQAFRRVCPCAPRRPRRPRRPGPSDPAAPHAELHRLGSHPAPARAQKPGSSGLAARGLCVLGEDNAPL
T1 sequence (Q969F8 whole entry L364H): as above

| Compound | Specific Act. (EC50/MS10 EC50) (hOT7T175 [1]) | Teststerone level in Blood [2] [%] | intracellular Ca ion level-increasing activity [specific activity to Metastin (1-54)] (hOT7T175 [3]) | Teststerone level in Blood [4] [%] | Testosterone level in Blood [5] [%] |
| --- | --- | --- | --- | --- | --- |
| 3-(3-Indolyl)propionyl-Phe-AzaGly-Leu-Arg(Me)-Trp-NH2 [Compound No. 354] | 0.8 | 43 | 10 |  |  |
| 3-(3-Pyridyl)propionyl-Asn-Ser-Phe-AzaGly-Leu-Arg(Me)-Trp-NH2 [Compound No. 386] | 2.9 | 23 | 7 |  |  |
| 3-(4-Hydroxyphenyl)propionyl-D-Trp-Asn-Thr-Phe-AzaGly-Leu-Arg(Me)-Trp-NH2 [Compound No. 559] | 0.3 |  |  | 17 |  |
| 3-Phenylpropionyl-Asn-Hyp-Phe-AzaGly-Leu-Arg(Me)-Trp-NH2 [Compound No. 517] | 1.0 | 79 |  |  |  |
| 3-Phenylpropionyl-Asn-Ser-Phe(4F)-AzaGly-Leu-Arg(Me)-Trp-NH2 [Compound No. 508] | 1.0 | 9 | 10 |  |  |
| 3-Phenylpropionyl-Asn-Thr-Phe-AzaGly-Leu-Arg(Me)-Trp-NH2 [Compound No. 505] | 0.7 | 40 | 20 |  |  |
| 4-Pyridinecarbonyl-Phe-AzaGly-Leu-Arg(Me)-Trp-NH2 [Compound No. 436] | 1.4 | 35 | 5 |  |  |
| CNC(=N)NCCC[C@H](NC(=O)[C@H](CC(C)C)NC(=O)NNC(=O)[C@H](Cc1ccccc1)NC(=O)[C@H](CO)NC(=O)[C@H](CC(N)=O)NC(=O)CCc1ccccc1)C(=O)N[C@@H](Cc1ccccc1)C(N)=O [Compound No. 269, 3-Phenylpropionyl-Asn-Ser-Phe-AzaGly-Leu-Arg(Me)-Phe-NH2] (Hydrocinnamoyl-NSF[azaGly]L[Arg(Me)]F-NH2) | 3.4 | 7 | 3 |  |  |
| Ac-D-Arg-Acp-D-Tyr-D-Trp-Asn-Thr-Phe-AzaGly-Leu-Arg(Me)-Trp-NH2 [Compound No. 551] | 1.2 |  |  | 8 |  |
| Ac-D-Tyr-D-Pya(4)-Asn-Ser-Phe-AzaGly-Leu-Arg(Me)-Phe-NH2 [Compound No. 516] | 3.7 |  |  | 3 |  |
| Ac-D-Tyr-D-Pya(4)-Asn-Thr-Phe-AzaGly-Leu-Arg(Me)-Trp-NH2 [Compound No. 562] | 1.0 |  |  | 11 |  |
| Ac-[dY][dW]NSF[azaGly]L[Arg(Me)]W-NH2 [Compound No. 558] | 0.4 |  |  | 2 |  |
| Ac-[dY][dW]NTF[azaGly]L[Arg(Me)]F-NH2 [Compound No. 571] | 1.2 |  |  | 17 |  |
| Ac-[dY][dW]NTF[azaGly]L[Arg(Me)]W-NH2 [Compound No. 550] | 0.7 |  |  | 2 |  |
| Ac-[dY][dW]NVF[azaGly]L[Arg(Me)]W-NH2 [Compound No. 564] | 0.5 |  |  | 66 | 2 |
| Arg-Acp-D-Tyr-D-Pya(4)-Asn-Ser-Phe-AzaGly-Leu-Arg(Me)-Trp-NH2 [Compound No. 538] | 3.3 |  |  | 45 |  |

| Compound | Specific Act. (EC50/MS10 EC50) (hOT7T175 [1]) | Teststerone level in Blood [2] [%] | intracellular Ca ion level-increasing activity [specific activity to Metastin (1-54)] (hOT7T175 [3]) | Teststerone level in Blood [4] [%] | Testosterone level in Blood [5] [%] |
| --- | --- | --- | --- | --- | --- |
| Butyryl-[dY][dW]NTF[azaGly]L[Arg(Me)]W-NH2 [Compound No. 567] | 0.8 |  |  | 86 |  |
| Bz-NSF[azaGly]L[Arg(Me)]W-NH2 [Compound No. 509] | 2.0 | 2 | 20 |  |  |
| Bz-NS[Phe(4-F)][azaGly]L[Arg(Me)]W-NH2 [Compound No. 545] | 1.1 |  |  | 37 | 2 |
| Bz-NT[Phe(4-F)][azaGly]L[Arg(Me)]W-NH2 [Compound No. 523] | 1.1 |  |  | 72 |  |
| Bz-[dY][dW]NTF[azaGly]L[Arg(Me)]W-NH2 [Compound No. 565] | 0.6 |  |  | 80 |  |
| Cyclopropanecarbonyl-D-Tyr-D-Trp-Asn-Thr-Phe-AzaGly-Leu-Arg(Me)-Trp-NH2 [Compound No. 566] | 0.8 |  |  | 89 |  |
| D-Dap-Acp-D-Tyr-D-Trp-Asn-Thr-Phe-AzaGly-Leu-Arg(Me)-Trp-NH2 [Compound No. 552] | 2.3 |  |  | 21 |  |
| D-Nle-Acp-D-Tyr-D-Trp-Asn-Thr-Phe-AzaGly-Leu-Arg(Me)-Trp-NH2 [Compound No. 553] | 1.9 |  |  | 39 |  |
| D-Tyr-D-Pya(4)-Ala-Ser-Phe-AzaGly-Leu-Arg(Me)-Trp-NH2 [Compound No. 492] | 1.1 | 65 | 5 |  |  |
| D-Tyr-D-Pya(4)-Asn-Ser(Ac)-Phe-AzaGly-Leu-Arg(Me)-Trp-NH2 [Compound No. 547] | 2.5 |  |  | 65 |  |
| D-Tyr-D-Pya(4)-Asn-Ser-Cha-Gly-Leu-Arg(Me)-Trp-NH2 [Compound No. 496] | 0.7 | 3 | 5 |  |  |
| D-Tyr-D-Pya(4)-Asn-Val-Phe-AzaGly-Leu-Arg(Me)-Trp-NH2 [Compound No. 515] | 1.0 | 2 | 10 |  |  |
| GuAmb-Phe-AzaGly-Leu-Arg(Me)-Trp-NH2 [Compound No. 334] |  | 40 |  |  |  |
| [dR][GABA][dY][dW]NTF[azaGly]L[Arg(Me)]W-NH2 [Compound No. 555] | 1.5 |  |  | 73 | 2 |
| [dR][βAla][dY][dW]NTF[azaGly]L[Arg(Me)]W-NH2 [Compound No. 554] | 1.3 |  |  | 52 |  |
| [dY][dW]NSF[azaGly]L[Arg(Me)]W-NH2 [Compound No. 540] | 0.7 |  |  | 55 |  |

Source: patent publication US8778871B2 (Takeda Pharmaceutical Company Limited, priority 2004, dated 2014)
